Laboratory results: PubChem BioAssay (NCI)
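Interpolation was linear, between the two tested concentrations surrounding the appropriate level; five concentrations were tested over 48 hours in 96-well plates. At the TGI there is no net growth.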

Legend:
Assay in all cases: inhibition of tumour cell growth, NCI panel, 48 h
UACC-62 melanoma = system: UACC-62 melanoma
K-562 leukemia = system: K-562 leukemia
HOP-92 NSCLC = system: HOP-92 NSCLC
MDA-MB-231 breast = system: MDA-MB-231 breast
SK-MEL-28 melanoma = system: SK-MEL-28 melanoma
UACC-257 melanoma = system: UACC-257 melanoma
HOP-62 NSCLC = system: HOP-62 NSCLC
COLO 205 colon = system: COLO 205 colon
EKVX NSCLC = system: EKVX NSCLC
MDA-MB-435 = system: MDA-MB-435

Measured: TGI

COC(=O)NC(Cc1ccccc1)NC(=O)OC(C)(C)C (stereo not given)
> 100 µM: all assays above

CSc1nnnc2ccccc12
> 100 µM: all assays above

O=C(CC(=O)N1N=C(c2ccccc2)C(N=Nc2ccc(S(=O)(=O)CCOS(=O)(=O)O)cc2)C1=O)Nc1ccc(Cl)cc1 (stereo not given)
> 100 µM: all assays above

CC1(C)CCCCCC(O)C(O)CCC(C)(C)C1=O (stereo not given)
> 100 µM: all assays above
